“And” between values parts separate entries of the source, which are not always exact repeats. Identical values can stand only once.
How the values were obtained:
HEK293T cells [1] = experiment: Effect of drugs on protein production (Luciferase reporter, constitutive Gal4-Rel65); assay type: cell-based; conditions: Suppl Fig 5b
Experimental: Supplementary Figure 5: Drug toxicity assessment. […]
HEK293T cells. The HEK293T cells were transfected with the Luciferase reporter and constitutive Gal4-Rel65 expression plasmid (pCMV-Gal4-Rel65-pA). Drugs were added to the transfected cells 24 hours post-transfection, quantification of luciferase activity 24 hours after the addition of the drugs. Each bar represents the mean of three biological replicates ± s.d overlaid with a scatter dot plot of the original […]

HEK293T cells [2] = experiment: CCK8 cell viability assay; assay type: cell-based; conditions: for Normalization of Supplementary Figure5a (CCK8 absorbance): in % (unit assumed); for Absorbance at 450nm (CCK8 colormetric assay): Suppl Fig 5a
Experimental: A cell counting kit-8 (CCK-8) assay (Sigma) was used to measure the cytotoxicity of three drugs on HEK293T cells. 10,000 cells per well were pre-seeded into 96 well plates in 100 µl complete culture medium. The culture medium was changed into drug containing medium with drug concentrations of 0 µM (0.1% DMSO),1 µM, 5 µM and 10 µM. After 24 h drug incubation, 10 µl WST-8 solution was added to each well for 4 h incubation under standard conditions. The absorbance at 450 nm was determined by a multiplate reader (Tecan Infinite 500).
Supplementary Figure 5: Drug toxicity assessment. a) Drug effects on cell viability of HEK293T cells. HEK293T cells were added different concentrations of drugs for an incubation period of 24 hours. WST-8 was added 24 h after drug incubation and the absorbance at 450 nm was measured 4 h later. […]

[3] = system: JAK/STAT pathway SEAP expression in HEK293T cells; experiment: AIR-GEMS ON-switch SEAP assay; conditions: Fig S11a; 100 nM Drug-2
Experimental: We fused the AIR components in the ectodomains of the GEMS and measured SEAP activity as a reporter for drug-triggered activation.
HEK293T cells were maintained in DMEM medium with 10% FBS (Gibco) and Pen/Strep (Thermo Fisher). Cells were maintained and split every two days at around 80% confluence. HEK293T cells were seeded 24 h before transfection, and transfected with the lipofectamine 3000 kit (Thermo Fisher). Plasmids were cotransfected according to the Table S7. For the drug OFF-switch experiments, drugs were added 12 h post transfection and incubated with cells for 24 h before the SEAP detection assay.
Representative data of cellular assays are presented as individual values and mean values (bars). n = 3 refers to biological replicates. All IC50/EC50 values of cellular assays (CDH-TF, CDH-GEMS, AIR-TF and AIR-GEMS) reported were calculated using four-parameter nonlinear regression ± s.d.
Bcl2 mutants were cloned into the AIR-GEMS

[4] = system: SEAP expression in HEK293T cells; experiment: Background signal of SEAP reporter and single-construct controls; assay type: cell-based
Experimental: Supplementary Figure 7: Dose-dependence and reversibility characterization of CDHs in CDH- […]
transfected with SEAP reporter S132 and treated with 1 µM Drugs 12 hours post transfection.
Quantification of SEAP was performed 24 hours after drug treatment. b) Drug specificity of CDH-TFs. […]
Background signal of SEAP reporter in the absence of the CDH-GEMS system. HEK293T cells were transfected with pLS566 SEAP reporter plasmids and treated with drugs. Quantification of SEAP was performed 24 hours post drug treatment. f) SEAP activity upon transfecting single or paired […]
Quantification of SEAP activity of three CDHs with DMSO (dark color), specific (light color) and unspecific drug treatment (gray). […]
(culture medium) in panels of b, c, f and g were collected every 12 hours. Values were normalized to zero based on the SEAP expression at time 0. a, b, e, f, g) The bar charts show the mean ± s.d. of n = 3 biologically independent samples overlaid with a scatter dot plot of the original data points.

mdm2 = mdm2 (Homo sapiens, UniProt Q00987); parameters: method as in PMID 26768531; conditions: read-out: reported binding affinity to mdm2; cited from earlier work
[5] = target: T1, LD3 in the presence of Drug-1 (Homo sapiens, UniProt Q07817, DEL45-84/F105I/R102E); experiment: SPR pre-screening and competition of Drug-1 resistant Bcl-XL mutants binding LD3; conditions: 5 µM receptor mixed with 10 µM Drug-1
T1 construct: 6xHis (N); made in house; host or cells: E. coli BL21(DE3)
Experimental: Supplementary Figure 10: Biophysical and cellular characterization of designed Drug-1- […]
a) Pre-screening of Drug-1 resistant Bcl-XL mutants by SPR. 5 µM of Bcl-XL and five mutants were mixed with 10 µM of Drug-1 and injected over the LD3 immobilized chip to analyse the binding response. […]
dilutions of Drug-1 were pre-mixed with 4 µM LD3 and injected over iBcl-XL_v3 immobilized chip to collect the response. c) Dissociation constant measurement of iBcl-XL_v3 and LD3. Sensorgrams are in black dashed curves and the fitted curves in solid red lines. Kd was using a 1:1 binding model. d) […]
normalized to the positive control (DMSO group). […]

Sequence of mdm2 (Q00987 26-109 limits assumed): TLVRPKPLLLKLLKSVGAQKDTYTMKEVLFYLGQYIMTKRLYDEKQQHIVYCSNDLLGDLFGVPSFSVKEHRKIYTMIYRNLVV
T1 sequence (Q07817 with tags, fused parts or gaps DEL45-84/R102E/F105I limits assumed): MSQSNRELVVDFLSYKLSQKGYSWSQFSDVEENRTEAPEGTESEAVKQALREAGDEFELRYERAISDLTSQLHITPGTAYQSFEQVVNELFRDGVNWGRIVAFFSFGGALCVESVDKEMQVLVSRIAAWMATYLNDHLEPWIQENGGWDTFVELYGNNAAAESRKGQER

## CC1(C)CCC(CN2CCN(c3ccc(C(=O)NS(=O)(=O)c4ccc(NCC5CCOCC5)c([N+](=O)[O-])c4)c(Oc4cnc5[nH]ccc5c4)c3)CC2)=C(c2ccc(Cl)cc2)C1 [Drug2]
HEK293T cells [1]; 1 µM
  Luciferase production (luminescence): 239858 and 221880 and 230049
HEK293T cells [1]; 5 µM
  Luciferase production (luminescence): 235551 and 211876 and 214947
HEK293T cells [1]; 10 µM
  Luciferase production (luminescence): 249510 and 226877 and 232289
HEK293T cells [2]; 1 µM
  Normalization of Supplementary Figure5a (CCK8 absorbance): 91.0979 and 90.3939 and 94.3325
  Absorbance at 450nm (CCK8 colormetric assay): 2.3291 and 2.3111 and 2.4118
HEK293T cells [2]; 5 µM
  Normalization of Supplementary Figure5a (CCK8 absorbance): 94.2973 and 98.0561 and 96.7732
  Absorbance at 450nm (CCK8 colormetric assay): 2.4109 and 2.507 and 2.4742
HEK293T cells [2]; 10 µM
  Normalization of Supplementary Figure5a (CCK8 absorbance): 95.7875 and 97.7823 and 95.6546
  Absorbance at 450nm (CCK8 colormetric assay): 2.449 and 2.5 and 2.4456

## Bcl2
[3]
  Reporter signal, 100 nM Drug-2: 0.7857 and 0.8309 and 0.7087
[4]; Suppl Fig 7f, CDH2
  Reporter signal, single constructs vs pair: 12.2479 and 10.8467 and 9.94
[4]; Suppl Fig 7g (so in the source), CDH2
  Reporter signal, single constructs vs pair: 12.2479 and 10.8467 and 9.94

## CN(C)CC#Cc1ccc(OCCCc2sc(N3CCc4cccc(C(=O)Nc5nc6ccccc6s5)c4C3)nc2C(=O)O)c(F)c1 [Drug1]
HEK293T cells [1]; 1 µM
  Luciferase production (luminescence): 298584 and 267400 and 264776
HEK293T cells [1]; 5 µM
  Luciferase production (luminescence): 259902 and 193284 and 231257
HEK293T cells [1]; 10 µM
  Luciferase production (luminescence): 268448 and 250247 and 248473
HEK293T cells [2]; 1 µM
  Normalization of Supplementary Figure5a (CCK8 absorbance): 107.788 and 102.052 and 84.2322
  Absorbance at 450nm (CCK8 colormetric assay): 1.2364 and 1.1706 and 0.9662
HEK293T cells [2]; 5 µM
  Normalization of Supplementary Figure5a (CCK8 absorbance): 106.001 and 108.808 and 85.1912
  Absorbance at 450nm (CCK8 colormetric assay): 1.2159 and 1.2481 and 0.9772
HEK293T cells [2]; 10 µM
  Normalization of Supplementary Figure5a (CCK8 absorbance): 101.677 and 96.2978 and 81.5907
  Absorbance at 450nm (CCK8 colormetric assay): 1.1663 and 1.1046 and 0.9359

## stapled p53 peptide: stapled p53 peptide (PDB 5afg) used as input peptide motif (LTFAEYWAQLAS)
mdm2
  Kd: 12 ± 3 nM

## Bcl-XL: wildtype drug receptor protein of CDH-1
[4]; Suppl Fig 7f, CDH1
  Reporter signal, single constructs vs pair: 17.1033 and 16.0472 and 16.2645
[4]; Suppl Fig 7g (so in the source), CDH1
  Reporter signal, single constructs vs pair: 17.1033 and 16.0472 and 16.2645
[5]
  inhibition by Drug-1 of binding to LD3 immobilized chip: complete inhibition

Source: article PMC8486872, “A rational blueprint for the design of chemically-controlled protein switches” (Nature Communications, 2021)
